Assays:
rabies virus G protein = rabies virus G protein (Rabies virus, UniProt O92284); test: biochemical; format: binding
rabies virus CVS strain = test: microbe, parasite or virus in culture; format: cell-based; details: for IC50: Lyssavirus rabies, read-out: IC50 values (anti-rabies, as worded in the text)
[1] = Cytotoxicity in Huh 7 cells; details: human, Huh 7 cells
BSR cells = test: Cytotoxicity in BSR cells; details: Cytotoxic concentration required to inhibit BSR cell growth by 50%
Kunming mice = test: Acute toxicity test in Kunming mice; details: oral, single dose, monitored for 7 days
pSARS-CoV-2 = format: cell-based, SARS-CoV-2
Huh 7 cells = test: Cytotoxicity in Huh 7 cells; details: Cytotoxic concentration required to inhibit Huh 7 cell growth by 50%

rabies virus G protein, sequence (O92284 20-459 limits assumed): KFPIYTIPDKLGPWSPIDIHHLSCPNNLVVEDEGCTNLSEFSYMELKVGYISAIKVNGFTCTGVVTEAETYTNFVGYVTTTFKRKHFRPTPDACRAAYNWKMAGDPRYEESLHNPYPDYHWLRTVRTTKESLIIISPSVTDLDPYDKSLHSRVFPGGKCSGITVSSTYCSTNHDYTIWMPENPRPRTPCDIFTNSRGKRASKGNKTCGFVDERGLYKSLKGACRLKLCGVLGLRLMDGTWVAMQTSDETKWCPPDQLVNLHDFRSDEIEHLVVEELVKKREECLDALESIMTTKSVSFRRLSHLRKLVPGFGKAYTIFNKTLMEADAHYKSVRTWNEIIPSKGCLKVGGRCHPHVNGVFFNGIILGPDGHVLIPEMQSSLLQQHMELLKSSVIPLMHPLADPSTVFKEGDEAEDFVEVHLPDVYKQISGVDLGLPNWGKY

With `CC(C)/N=c1\cc2n(-c3ccc(Cl)cc3)c3ccccc3nc-2cc1Nc1ccc(Cl)cc1` [Compound 1, clofazimine, reference compound] the Kd (rabies virus G protein) was 730 nM.

With `CC(C)/N=c1\cc2n(-c3ccc(Cl)cc3)c3ccccc3nc-2cc1Nc1ccc(OC(F)(F)F)cc1` [Compound 7i, 2-p-Trifluoromethoxyanilino-3-isopropylimino-5-p-chlorophenyl-3,5-dihydro phenazine] the IC50 (rabies virus CVS strain) was 1770 nM.

Compound `CC(C)/N=c1\cc2n(-c3ccccc3)c3ccccc3nc-2cc1Nc1ccc(Cl)cc1` [Compound 7l] has an IC50 (rabies virus CVS strain) of 1400 nM.

In the case of `CC(C)/N=c1\cc2n(-c3ccc(F)cc3)c3ccccc3nc-2cc1Nc1ccc(F)cc1` [Compound 15b], the CC50 at 24 h [1] is reported as > 200000 nM.

With “2-Benzyl-3-imino-5-phenyl-3,5-dihydrophenazine [Compound 6l]” the EC50 (rabies virus CVS strain) was 35400 nM and the CC50 (BSR cells) was 35400 nM.

`CC(C)/N=c1\cc2n(-c3ccccc3)c3ccccc3nc-2cc1NCc1ccc(F)cc1` [Compound 7q, 2-p-Fluorobenzylamino-3-isopropylimino-5-phenyl-3,5-dihydrophenazine] showed an IC50 (rabies virus CVS strain) of 1900 nM.

In the case of `COc1ccc(-n2c3c/c(=N\C(C)C)c(Nc4cccc(F)c4)cc-3nc3ccccc32)cn1` [Compound 15f, 2-m-Fluoroanilino-3-isopropylimino-5-(6-methoxy-3-pyridinyl)-3,5-dihydro phenazine], the IC50 (rabies virus CVS strain) is reported as 1450 nM, the “median lethal dose (LD50)” value (Kunming mice) is reported as “over 800 mg•kg^−1” and the Kd (rabies virus G protein) is reported as 280 nM.

Compound `CC(C)/N=c1\cc2n(-c3ccccc3)c3ccccc3nc-2cc1NCc1ccccc1` [Compound 7p, 2-Benzylamino-3-isopropylimino-5-phenyl-3,5-dihydrophenazine] has an IC50 (rabies virus CVS strain) of 1400 nM.

For “2-p-fluoroanilino-3-isopropylimino-5-p-chlorophenyl-3,5-dihydrophenazine [Compound 15a]”, the EC50 (pSARS-CoV-2) was 29600 nM, the EC50 (rabies virus CVS strain) was 4020 nM and the CC50 (Huh 7 cells) was 17000 nM. For the same compound, the CC50 (BSR cells) was > 200000 nM.

For `CC(C)/N=c1\cc2n(-c3ccc(Cl)cc3)c3ccccc3nc-2cc1NCc1ccc(Cl)cc1` [Compound 7k, 2-p-Chlorobenzylamino-3-isopropylimino-5-p-chlorophenyl-3,5-dihydrophena zine], the IC50 (rabies virus CVS strain) was 760 nM.

In the case of `COc1ccc(-n2c3c/c(=N\C(C)C)c(Nc4ccc(F)cc4)cc-3nc3ccccc32)cn1` [Compound 15g, 2-p-Fluoroanilino-3-isopropylimino-5-(6-methoxy-3-pyridinyl)-3,5-dihydro phenazine], the IC50 (rabies virus CVS strain) is reported as 1410 nM and the “median lethal dose (LD50)” value (Kunming mice) is reported as “over 800 mg•kg^−1”.

Source: paper PMC8897968 (European Journal of Medicinal Chemistry, 2022)
